The test system of one series is NNR5 cells. The series can be described thus: Viability of NNR5 cells transfected with Karet constructs with or without TrkA. It counts as cell-based, rat. The method, then: FIG. 5f is a viable cell count histogram depicting that the pro-apoptotic effect of Karet is TrkA dependent. NNR5 cells were electroporated with GFP with or without TrkA construct, or Karet with or without TrkA. Cells were incubated for 12 hours after electroporation and results are presented as percent of control (NNR5 transfected with GFP only, mean±SD, n=4, * p<0.05).
FIGS. 20a-q are immunochemistry (FIGS. 20a-p) and FACS (FIG. 20q) analyses of myristylated constructs of Karet, PTB and the non-PTB domain in PC12 (FIGS. 20a-p) or NNR5 (FIG. 20q) cells. Myristylated constructs of Karet (FIGS. 20e-h), PTB (FIGS. 20i-l) and the non-PTB domain (FIGS. 20m-p) or non-myristylated construct of Karet (FIGS. 20a-d) were transfected to PC12 cells and immunochemistry of the expressed constructs was performed using HA-antibody (FIG. 20a), the PTB-antibody (FIGS. 20e, i and m) or Lamin (a nuclear membrane protein)-antibody (FIGS. 20b, f, j, and n). Merged images of the two-color immunocytochemistry are shown in FIG. 20d (for anti-Ha and anti-lamin antibodies) or FIGS. 20h l, and p (for anti-PTB and anti-lamin antibodies). Note the cytoplasmic expression of non-myristylated Karet (FIG. 20a) as compared to the nuclear membrane expression of lamin (FIG. 20b). […] NNR5 cells were transfected with pcDNA3, Ha Karet and TrkA, Myr-Karet, Myr-PTB or Myr-non PTB constructs and the effect on cell viability was determined using calcein (the dead/Live kit). […]
FIGS. 22a-b are histograms depicting the effect of co-transfection of Karet and TrkA on cell death in Hek (FIG. 22a) or NNR5 (FIG. 22b) cells. […] Viability of the cells was measured 24 hours after transfection by XTT. *p<0.05; FIG. 22b—NNR5 cells were co-transfected with Karet or control vector and TrkA, TrkB and TrkC. Cells were analyzed by FACS 24 hours after transfection using the dead/live kit. ** p<0.001.
Viability of cells was evaluated using the Live/dead viability/cytotoxicity kit (Cat. No. L-3224), Molecular Probes, Inc., Eugene, Oreg., USA, according to manufacturer's instructions.

Another series deals with T1, TrkB (Homo sapiens, UniProt Q16620).
T1 construct: expressed in transfected cells; host or cells: Hek cells
The series can be described thus: Co-immunoprecipitation of Ha Karet with TrkB in Hek cells. To be noted: co-transfected Hek cells. The series is classed as binding. The method, then:
FIGS. 24a-d depict co IP of Ha Karet with TrkA, TrkB, TrkC, p75 from co-transfected Hek cells. Cells were co-transfected with Ha Karet or control vector and TrkA, TrkB, TrkC or p75. Cells were lysed with NP40, the HA-beads (beads conjugated to anti-HA antibody) were blocked with Hek lysate, and elution was done for 30 minutes at 37° C. Proteins from anti-HA-IP (FIGS. 24a and b) or from cell lysates without IP (FIGS. 24c and d) were subjected to Western blot analysis and the membranes were probed with anti pan trk (FIGS. 24a and c) or anti-p75 (FIGS. 24b and d) antibodies. Note the specific co-IP of Karet with TrkA (FIG. 24a, lane 1), Karet with TrkB (FIG. 24a, lane 3), Karet with TrkC (FIG. 24a, lane 5) and the lack of IP between karet and p75 (FIG. 24b, lane 7).

The values that follow come from US20090036380A1, “Composition And Method For Brain Tumor Therapy” (Yeda Research and Development Co., Ltd., priority 2006, published 2009).

For the substance “Karet: full-length mouse Karet protein (SEQ ID NO:1), PTB domain protein, expressed from pcDNA3 with HA tag”, the cell viability entry in the series with NNR5 cells (NNR5 (TrkA deficient), Karet without TrkA) is recorded as “no reduction in cell viability”. Further, in the series on NNR5 cells (NNR5 co-transfected with Karet and TrkA, 12 hours after electroporation, percent of control), the “reduction in cell survival” value is “about 20%”. The decrease in viability in the series on NNR5 cells (NNR5 co-transfected with Karet and TrkA, FACS dead/live kit, 24 hours after transfection) turned out to be 13%. Also, the “co-immunoprecipitation with TrkB” value with TrkB is on record as “co-immunoprecipitated”.
